Read-outs that look alike come from different tables or passages of the source.
Tests used:
[1] = Volatility of compounds measured by thermogravimetric analysis (TGA), rate of weight loss; type: physicochemical; conditions: estimates of volatility
Text: Briefly, the rate of weight loss measured in units of […]g/min can be used to determine vapor pressure as shown by the simplified equation: wherein, k is the intrinsic volatility and A is the surface area, Referring now to FIG. 2. A graph of weight loss as function of time for solid samples produces a linear curve; the slope of the curve is the rate of weight loss. When this method is used to measure the volatility of aqueous salt concentrates or liquid concentrates, the water or acetone present in the sample volatilizes before the sample of interest. The first linear loss region of the curve is the loss of water or acetone and the second linear region is characteristic of the sample of interest. In order to illustrate the difference in volatility between some of the compounds disclosed herein and the widely used herbicide dicamba, data from both the compounds and dicamba are presented Table 3 and in FIG. 1.

[2] = test system: Ambrosia artemisiifolia (AMBEL); assay: Postemergence herbicide evaluation, percent reduction in plant size vs untreated control, 21 days after treatment; type: in vivo, Ambrosia artemisiifolia (common ragweed); conditions: post-emergence, 504 h, read-out: Control/Injury
Method in brief: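 Greenhouse-grown plants (25–28 °C, 16 h light) were sprayed postemergence at the 2–8 leaf stage with 140 or 280 g ae/ha in acetone/DMSO-based spray solution with crop oil and surfactant, at 187 L/ha by track sprayer. There were 3–4 replicates. Plant size was measured 21 days after treatment versus untreated plants.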

[3] = test system: Kochia scoparia (KCHSC); assay: as above; type: in vivo; conditions: Bassia scoparia, post-emergence, 504 h, read-out: Control/Injury
Method in brief: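 Greenhouse-grown plants (25-28 °C, 16 h light) at the 2 to 8 leaf stage were track-sprayed postemergence at 140 or 280 g ae/ha in acetone/DMSO-based spray solution with crop oil and surfactant, at 187 L/ha, in 3-4 randomized replicates.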

[4] = test system: Glycine max; assay: whole plant or invertebrate; conditions: for plant injury at 140 g/ha / plant injury at 280 g/ha: Glycine max, post-emergence, 504 h, read-out: Control/Injury; for Control/Injury: in vivo
Method in brief: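 Greenhouse soybean (25–28 °C, 16 h light) sprayed post-emergence at 2–8 leaf stage with 140 or 280 g ae/ha in acetone/DMSO-based spray solution with crop oil concentrate, 187 L/ha by track sprayer; 3–4 replicates, randomized blocks. Plant size reduction versus untreated control measured 21 days after treatment.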

[5] = test system: Amaranthus rudis (AMATA); assay: Postemergence herbicide evaluation, percent reduction in plant size vs untreated control, 21 days after treatment; type: in vivo, Amaranthus rudis (tall water hemp); conditions: Amaranthus tuberculatus, post-emergence, 504 h, read-out: Control/Injury
Method in brief: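 Greenhouse-grown tall waterhemp (25-28° C, 16 h light) at the 2-8 leaf stage, treated by track sprayer at 187 L/ha with compound at 140 or 280 g ae/ha in acetone/DMSO-based spray solution with crop oil and surfactant. 3-4 replicates per treatment, randomized complete block; plant size reduction versus untreated control measured 21 days after treatment.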

[6] = test system: Amaranthus palmeri (AMAPA); assay: as above; type: in vivo, Amaranthus palmeri (Palmer amaranth); conditions: post-emergence, 504 h, read-out: Control/Injury
Method in brief: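 Greenhouse-grown Palmer amaranth (25 to 28° C, 16 h light) sprayed postemergence at the 2 to 8 leaf stage with 140 or 280 g ae/ha in acetone/DMSO-based solution containing crop oil concentrate, 187 L/ha by track sprayer. Three to four replicates; plant size measured 21 days after treatment as percent reduction versus untreated control.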

[7] = test system: Conyza canadensis (L.) (ERICA); assay: as above; type: in vivo, Conyza canadensis (L.) (Horseweed); conditions: Erigeron canadensis, post-emergence, 504 h, read-out: Control/Injury
Method in brief: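 Horseshoe-weed (horseweed) seedlings at 2 to 8 leaf stage in greenhouse (25-28° C, 16 h light), sprayed postemergence at 140 or 280 g ae/ha in acetone/DMSO-based spray solution, 187 L/ha track-sprayer. Randomized complete block, 3-4 replicates; plant size measured 21 days after treatment as percent reduction vs untreated controls.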

[8] = AMBEL, rate 140 g ae/ha, postemergence
[9] = AMBEL, rate 280 g ae/ha, postemergence
[10] = KCHSC, rate 140 g ae/ha, postemergence, percent reduction vs untreated control, 21 days after treatment
[11] = KCHSC, rate 280 g ae/ha, postemergence, percent reduction vs untreated control, 21 days after treatment
[12] = AMATA, rate 140 g ae/ha, postemergence
[13] = AMATA, rate 280 g ae/ha, postemergence
[14] = R-AMAPA, rate 140 g ae/ha, postemergence, percent reduction vs untreated control, 21 days after treatment
[15] = R-AMAPA, rate 280 g ae/ha, postemergence, percent reduction vs untreated control, 21 days after treatment
[16] = ERICA, rate 140 g ae/ha, postemergence, percent reduction vs untreated control, 21 days after treatment
[17] = ERICA, rate 280 g ae/ha, postemergence, percent reduction vs untreated control, 21 days after treatment

SMILES | pest or weed control at 140 g/ha [2, 8] | pest or weed control at 280 g/ha [2, 9] | pest or weed control at 140 g/ha [3, 10] | pest or weed control at 280 g/ha [3, 11] | plant injury at 140 g/ha [4] | plant injury at 280 g/ha [4] | pest or weed control at 140 g/ha [5, 12] | pest or weed control at 280 g/ha [5, 13] | pest or weed control at 140 g/ha [6, 14] | pest or weed control at 280 g/ha [6, 15] | pest or weed control at 140 g/ha [7, 16] | pest or weed control at 280 g/ha [7, 17] | also measured
COc1ccc(/C(N)=N/OC(=O)c2c(Cl)ccc(Cl)c2OC)cc1 [Compound A-20] | – | – | – | – | – | – | – | – | – | – | – | – | Volatility [1]: 0.04 ng/min
COc1c(Cl)ccc(Cl)c1C(=O)OCc1ccc(COC(=O)c2c(Cl)ccc(Cl)c2OC)cc1 [Compound A-56] | – | – | – | – | – | – | – | – | – | – | – | – | Volatility [1]: 0.08 ng/min
COc1c(Cl)ccc(Cl)c1C(=O)O/N=C(\N)c1ccccc1Cl [Compound A-13] | – | – | – | – | – | – | – | – | – | – | – | – | Volatility [1]: 0.012 ng/min
CO/C(=N\OC(=O)c1c(Cl)ccc(Cl)c1OC)c1ccccc1 [Compound A-83] | 93% | 87% | 85% | 94% | 22% | 15% | 65% | 65% | 70% | 83% | 90% | 97% | –
COc1c(Cl)ccc(Cl)c1C(=O)ONC(=O)c1ccccc1 [Compound A-89] | 80% | 90% | 84% | 95% | 13% | 5% | 63% | 78% | 70% | 88% | 77% | 95% | –
COc1c(Cl)ccc(Cl)c1C(=O)Oc1nc(-c2ccccc2)cs1 [Compound A-120] | 68% | 85% | – | – | – | – | 40% | 58% | – | – | – | – | pest or weed control at 140 g/ha ([3]; KCHSC, rate 140 g ae/ha, postemergence, percent reduction vs untreated, 21 days after treatment): 63%; pest or weed control at 280 g/ha ([3]; KCHSC, rate 280 g ae/ha, postemergence, percent reduction vs untreated, 21 days after treatment): 85%; Control/Injury [4]: 5; pest or weed control at 140 g/ha ([6]; AMAPA, rate 140 g ae/ha, postemergence): 28%; pest or weed control at 280 g/ha ([6]; AMAPA, rate 280 g ae/ha, postemergence): 45%; pest or weed control at 140 g/ha ([7]; ERICA, rate 140 g ae/ha, postemergence): 85%; pest or weed control at 280 g/ha ([7]; ERICA, rate 280 g ae/ha, postemergence): 99%
CCOC(=O)C(=NOC(=O)c1c(Cl)ccc(Cl)c1OC)C(=O)OCC [Compound A-87] | 70% | 65% | 90% | 70% | 5% | 28% | 37% | 20% | 62% | 53% | 30% | 33% | –
CCOC(=O)/C(C#N)=N/OC(=O)c1c(Cl)ccc(Cl)c1OC [Compound A-86] | 88% | 91% | 90% | 97% | 32% | 25% | 63% | 67% | 72% | 73% | 87% | 95% | –
COc1c(Cl)ccc(Cl)c1C(=O)O/N=C(\C)C(C)(C)C [Compound A-82] | 90% | 88% | 98% | 88% | 27% | 7% | 78% | 72% | 85% | 83% | 91% | 96% | –
COc1c(Cl)ccc(Cl)c1C(=O)ON1C(=O)CCC1=O [Compound A-73] | 77% | 82% | – | – | – | 4% | 50% | 88% | 70% | 83% | 85% | 80% | pest or weed control at 140 g/ha ([3]; KCHSC, rate 140 g ae/ha, postemergence): 82%; pest or weed control at 280 g/ha ([3]; KCHSC, rate 280 g ae/ha, postemergence): 88%; Control/Injury [4]: 1
CCO/C(C)=N\OC(=O)c1c(Cl)ccc(Cl)c1OC [Compound A-93] | 68% | 90% | 77% | 93% | 10% | 5% | 60% | 75% | 68% | 80% | 63% | 80% | –
COc1c(Cl)ccc(Cl)c1C(=O)O/N=C(\C#N)c1ccccc1 [Compound A-84] | – | – | – | – | 8% | 38% | – | – | – | – | – | – | pest or weed control at 140 g/ha [2]: 70%; pest or weed control at 280 g/ha [2]: 78%; pest or weed control at 140 g/ha [3]: 68%; pest or weed control at 280 g/ha [3]: 85%; pest or weed control at 140 g/ha [5]: 17%; pest or weed control at 280 g/ha [5]: 27%; pest or weed control at 140 g/ha [6]: 33%; pest or weed control at 280 g/ha [6]: 28%; pest or weed control at 140 g/ha [7]: 37%; pest or weed control at 280 g/ha [7]: 78%
COc1c(Cl)ccc(Cl)c1C(=O)OC(=O)c1c(Cl)ccc(Cl)c1OC [Compound A-90] | 57% | 67% | 17% | 32% | 8% | 3% | 22% | 18% | 32% | 40% | 30% | 25% | –
CC/C(C)=N/OC(=O)c1c(Cl)ccc(Cl)c1OC [Compound A-91] | 82% | 96% | 78% | 98% | 3% | 3% | 72% | 78% | 72% | 88% | 85% | 88% | –
